The NIST ThermoML archive (doi:10.1016/j.jct.2005.03.016)
± gives the expanded uncertainty stated by the source.

Assay: xn = mol fraction of the nth substance listed
Settings: Liquid, Vibrating tube method

CC1CCCCC1 [methylcyclohexane] + CCO
mass density [kg/m3]
Settings | 100 kPa | 5000 kPa | 10000 kPa | 15000 kPa | 20000 kPa | 25000 kPa | 30000 kPa | 35000 kPa | 40000 kPa | 45000 kPa
293.15 K, x2 = 0.75 | – | – | – | – | – | – | – | – | – | 810 ± 0.6
293.15 K, x2 = 0.875 | – | – | – | – | – | – | – | – | – | 814.6 ± 0.6
303.15 K, x2 = 0 | 760.4 ± 0.3 | 764.7 ± 0.4 | 768.9 ± 0.4 | 772.8 ± 0.5 | 776.6 ± 0.5 | 780.2 ± 0.6 | 783.7 ± 0.6 | 787 ± 0.7 | 790.2 ± 0.7 | 793.3 ± 0.8
303.15 K, x2 = 0.052 | 760.1 ± 0.3 | 764.4 ± 0.4 | 768.6 ± 0.4 | 772.6 ± 0.5 | 776.5 ± 0.5 | 780.1 ± 0.6 | 783.6 ± 0.6 | 786.9 ± 0.7 | 790.1 ± 0.7 | 793.2 ± 0.8
303.15 K, x2 = 0.125 | 760.1 ± 0.3 | 764.4 ± 0.3 | 768.6 ± 0.4 | 772.7 ± 0.4 | 776.5 ± 0.5 | 780.2 ± 0.6 | 783.6 ± 0.6 | 787 ± 0.6 | 790.3 ± 0.7 | 793.4 ± 0.7
303.15 K, x2 = 0.25 | 760.7 ± 0.3 | 765.1 ± 0.3 | 769.4 ± 0.4 | 773.4 ± 0.4 | 777.3 ± 0.5 | 781 ± 0.5 | 784.5 ± 0.6 | 787.9 ± 0.6 | 791.2 ± 0.7 | 794.3 ± 0.7
303.15 K, x2 = 0.375 | 761.9 ± 0.2 | 766.3 ± 0.3 | 770.6 ± 0.3 | 774.7 ± 0.4 | 778.6 ± 0.4 | 782.3 ± 0.5 | 785.8 ± 0.5 | 789.2 ± 0.6 | 792.5 ± 0.6 | 795.7 ± 0.7
303.15 K, x2 = 0.5 | 763.6 ± 0.2 | 768 ± 0.3 | 772.3 ± 0.3 | 776.4 ± 0.4 | 780.3 ± 0.4 | 784 ± 0.5 | 787.6 ± 0.5 | 791 ± 0.6 | 794.3 ± 0.6 | 797.4 ± 0.7
303.15 K, x2 = 0.625 | 765.8 ± 0.2 | 770.2 ± 0.3 | 774.5 ± 0.3 | 778.6 ± 0.4 | 782.5 ± 0.4 | 786.3 ± 0.5 | 789.9 ± 0.5 | 793.3 ± 0.5 | 796.6 ± 0.6 | 799.8 ± 0.6
303.15 K, x2 = 0.75 | 768.9 ± 0.2 | 773.3 ± 0.2 | 777.7 ± 0.3 | 781.8 ± 0.3 | 785.7 ± 0.4 | 789.4 ± 0.4 | 793.1 ± 0.5 | 796.5 ± 0.5 | 799.8 ± 0.6 | 803 ± 0.6
303.15 K, x2 = 0.875 | 773.5 ± 0.2 | 777.9 ± 0.2 | 782.3 ± 0.3 | 786.4 ± 0.3 | 790.3 ± 0.4 | 794 ± 0.4 | 797.6 ± 0.5 | 801.1 ± 0.5 | 804.4 ± 0.5 | 807.6 ± 0.6
313.15 K, x2 = 0 | 751.7 ± 0.3 | 756.2 ± 0.4 | 760.7 ± 0.4 | 764.8 ± 0.5 | 768.8 ± 0.5 | 772.7 ± 0.6 | 776.3 ± 0.6 | 779.8 ± 0.7 | 783.1 ± 0.7 | 786.4 ± 0.8
313.15 K, x2 = 0.052 | 751.1 ± 0.3 | 755.7 ± 0.4 | 760.1 ± 0.4 | 764.4 ± 0.5 | 768.4 ± 0.5 | 772.2 ± 0.6 | 775.9 ± 0.6 | 779.4 ± 0.7 | 782.8 ± 0.7 | 786.1 ± 0.8
313.15 K, x2 = 0.125 | 751 ± 0.3 | 755.7 ± 0.3 | 760.2 ± 0.4 | 764.5 ± 0.5 | 768.5 ± 0.5 | 772.4 ± 0.6 | 776.1 ± 0.6 | 779.6 ± 0.7 | 783 ± 0.7 | 786.3 ± 0.8
313.15 K, x2 = 0.25 | 751.6 ± 0.3 | 756.3 ± 0.3 | 760.9 ± 0.4 | 765.2 ± 0.4 | 769.3 ± 0.5 | 773.2 ± 0.5 | 776.9 ± 0.6 | 780.5 ± 0.6 | 783.9 ± 0.7 | 787.2 ± 0.7
313.15 K, x2 = 0.375 | 752.7 ± 0.2 | 757.4 ± 0.3 | 762 ± 0.3 | 766.4 ± 0.4 | 770.5 ± 0.5 | 774.4 ± 0.5 | 778.1 ± 0.6 | 781.7 ± 0.6 | 785.2 ± 0.7 | 788.5 ± 0.7
313.15 K, x2 = 0.5 | 754.4 ± 0.2 | 759.1 ± 0.3 | 763.7 ± 0.3 | 768.1 ± 0.4 | 772.2 ± 0.4 | 776.1 ± 0.5 | 779.9 ± 0.5 | 783.5 ± 0.6 | 786.9 ± 0.6 | –
313.15 K, x2 = 0.625 | 756.7 ± 0.2 | 761.4 ± 0.3 | 766 ± 0.3 | 770.4 ± 0.4 | 774.5 ± 0.4 | 778.4 ± 0.5 | 782.2 ± 0.5 | 785.8 ± 0.6 | 789.3 ± 0.6 | –
313.15 K, x2 = 0.75 | 759.9 ± 0.2 | 764.6 ± 0.2 | 769.2 ± 0.3 | 773.6 ± 0.3 | 777.7 ± 0.4 | 781.6 ± 0.4 | 785.4 ± 0.5 | 789 ± 0.5 | 792.5 ± 0.6 | –
313.15 K, x2 = 0.875 | 764.7 ± 0.2 | 769.3 ± 0.2 | 773.9 ± 0.3 | 778.3 ± 0.3 | 782.4 ± 0.4 | 786.3 ± 0.4 | 790.1 ± 0.5 | 793.7 ± 0.5 | 797.1 ± 0.6 | –
